This note sets out measurements from article PMC11558128 (Advanced Science, 2024).

Molecules are shown by their SMILES. Positions of bridges follow the written chain, without caps; N, C: chain ends. Residues, ends and D or L forms follow the SMILES beside them.

For one data set, the target named is T1, rKv4.2 E283A (Rattus norvegicus, UniProt Q63881, E283A).
T1 construct: expressed in transfected cells; host or cells: HEK293T
In words: Patch clamp of rKv4.2 mutant E283A. To be noted: mean ± SEM. It counts as cell-based.

The next data set has as its target T2, rKv4.2 D281N (Rattus norvegicus, UniProt Q63881, D281N).
T2 construct: expressed in transfected cells; host or cells: HEK293T
In words: Patch clamp of rKv4.2 mutant D281N. It counts as cell-based. To be noted: mean ± SEM. A general note: In patch-clamp work, channel activity is measured electrically.

The target of a further data set is T3, rKv4.2 E283K (Rattus norvegicus, UniProt Q63881, E283K).
T3 construct: expressed in transfected cells; host or cells: HEK293T
T3 sequence (Q63881 1-630 E283K): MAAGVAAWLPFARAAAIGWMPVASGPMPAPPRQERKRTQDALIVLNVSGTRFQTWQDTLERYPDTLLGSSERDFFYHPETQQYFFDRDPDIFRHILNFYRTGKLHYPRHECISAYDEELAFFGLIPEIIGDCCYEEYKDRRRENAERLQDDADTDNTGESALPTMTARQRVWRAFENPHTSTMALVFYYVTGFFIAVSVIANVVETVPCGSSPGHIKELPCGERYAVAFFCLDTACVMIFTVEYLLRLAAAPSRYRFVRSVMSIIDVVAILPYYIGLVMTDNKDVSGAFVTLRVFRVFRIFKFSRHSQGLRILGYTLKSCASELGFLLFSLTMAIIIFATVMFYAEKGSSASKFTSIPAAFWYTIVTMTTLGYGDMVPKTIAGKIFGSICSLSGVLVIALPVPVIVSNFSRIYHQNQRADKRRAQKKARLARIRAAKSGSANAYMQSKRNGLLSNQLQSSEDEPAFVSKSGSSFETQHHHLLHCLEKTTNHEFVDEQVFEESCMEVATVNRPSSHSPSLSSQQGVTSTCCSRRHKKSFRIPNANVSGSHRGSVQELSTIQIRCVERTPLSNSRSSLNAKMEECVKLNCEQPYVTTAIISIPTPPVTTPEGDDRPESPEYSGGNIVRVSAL
In words: cell-based. As to conditions: mean ± SEM.

The target of the next data set is T4, rKv4.2 D284A (Rattus norvegicus, UniProt Q63881, D284A).
T4 construct: expressed in transfected cells; host or cells: HEK293T
T4 sequence (Q63881 whole entry D284A): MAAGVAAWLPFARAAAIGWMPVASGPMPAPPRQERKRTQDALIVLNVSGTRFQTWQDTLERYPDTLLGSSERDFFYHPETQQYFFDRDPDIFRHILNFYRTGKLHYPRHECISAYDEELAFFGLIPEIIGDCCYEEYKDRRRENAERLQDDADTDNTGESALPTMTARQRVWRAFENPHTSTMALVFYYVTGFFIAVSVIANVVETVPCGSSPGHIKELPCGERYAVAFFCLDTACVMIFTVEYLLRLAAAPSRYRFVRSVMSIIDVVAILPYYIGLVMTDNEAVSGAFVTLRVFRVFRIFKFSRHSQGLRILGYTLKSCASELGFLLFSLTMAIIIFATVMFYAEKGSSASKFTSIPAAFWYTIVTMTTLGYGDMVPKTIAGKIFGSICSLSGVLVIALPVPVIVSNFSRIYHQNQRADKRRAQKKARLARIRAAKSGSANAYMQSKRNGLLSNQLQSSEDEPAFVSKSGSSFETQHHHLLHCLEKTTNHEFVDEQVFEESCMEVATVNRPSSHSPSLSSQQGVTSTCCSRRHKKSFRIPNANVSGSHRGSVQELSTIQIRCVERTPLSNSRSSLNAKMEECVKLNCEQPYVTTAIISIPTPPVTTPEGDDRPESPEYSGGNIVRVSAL
The data set can be described thus: Patch clamp of rKv4.2 mutant D284A. It is filed as cell-based. As to conditions: mean ± SEM.

The target of the next data set is T5, hNav1.7 (Homo sapiens, UniProt Q15858).
T5 construct: expressed in transfected cells; host or cells: HEK293T
T5 sequence (O60939 30-215): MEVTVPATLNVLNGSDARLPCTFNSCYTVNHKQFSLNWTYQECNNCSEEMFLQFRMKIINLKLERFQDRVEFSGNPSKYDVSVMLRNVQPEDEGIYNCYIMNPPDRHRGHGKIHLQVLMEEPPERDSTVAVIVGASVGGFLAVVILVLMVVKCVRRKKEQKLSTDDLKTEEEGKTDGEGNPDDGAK
T5 sequence (Q15858 other isoform, or with tags, fused parts or gaps): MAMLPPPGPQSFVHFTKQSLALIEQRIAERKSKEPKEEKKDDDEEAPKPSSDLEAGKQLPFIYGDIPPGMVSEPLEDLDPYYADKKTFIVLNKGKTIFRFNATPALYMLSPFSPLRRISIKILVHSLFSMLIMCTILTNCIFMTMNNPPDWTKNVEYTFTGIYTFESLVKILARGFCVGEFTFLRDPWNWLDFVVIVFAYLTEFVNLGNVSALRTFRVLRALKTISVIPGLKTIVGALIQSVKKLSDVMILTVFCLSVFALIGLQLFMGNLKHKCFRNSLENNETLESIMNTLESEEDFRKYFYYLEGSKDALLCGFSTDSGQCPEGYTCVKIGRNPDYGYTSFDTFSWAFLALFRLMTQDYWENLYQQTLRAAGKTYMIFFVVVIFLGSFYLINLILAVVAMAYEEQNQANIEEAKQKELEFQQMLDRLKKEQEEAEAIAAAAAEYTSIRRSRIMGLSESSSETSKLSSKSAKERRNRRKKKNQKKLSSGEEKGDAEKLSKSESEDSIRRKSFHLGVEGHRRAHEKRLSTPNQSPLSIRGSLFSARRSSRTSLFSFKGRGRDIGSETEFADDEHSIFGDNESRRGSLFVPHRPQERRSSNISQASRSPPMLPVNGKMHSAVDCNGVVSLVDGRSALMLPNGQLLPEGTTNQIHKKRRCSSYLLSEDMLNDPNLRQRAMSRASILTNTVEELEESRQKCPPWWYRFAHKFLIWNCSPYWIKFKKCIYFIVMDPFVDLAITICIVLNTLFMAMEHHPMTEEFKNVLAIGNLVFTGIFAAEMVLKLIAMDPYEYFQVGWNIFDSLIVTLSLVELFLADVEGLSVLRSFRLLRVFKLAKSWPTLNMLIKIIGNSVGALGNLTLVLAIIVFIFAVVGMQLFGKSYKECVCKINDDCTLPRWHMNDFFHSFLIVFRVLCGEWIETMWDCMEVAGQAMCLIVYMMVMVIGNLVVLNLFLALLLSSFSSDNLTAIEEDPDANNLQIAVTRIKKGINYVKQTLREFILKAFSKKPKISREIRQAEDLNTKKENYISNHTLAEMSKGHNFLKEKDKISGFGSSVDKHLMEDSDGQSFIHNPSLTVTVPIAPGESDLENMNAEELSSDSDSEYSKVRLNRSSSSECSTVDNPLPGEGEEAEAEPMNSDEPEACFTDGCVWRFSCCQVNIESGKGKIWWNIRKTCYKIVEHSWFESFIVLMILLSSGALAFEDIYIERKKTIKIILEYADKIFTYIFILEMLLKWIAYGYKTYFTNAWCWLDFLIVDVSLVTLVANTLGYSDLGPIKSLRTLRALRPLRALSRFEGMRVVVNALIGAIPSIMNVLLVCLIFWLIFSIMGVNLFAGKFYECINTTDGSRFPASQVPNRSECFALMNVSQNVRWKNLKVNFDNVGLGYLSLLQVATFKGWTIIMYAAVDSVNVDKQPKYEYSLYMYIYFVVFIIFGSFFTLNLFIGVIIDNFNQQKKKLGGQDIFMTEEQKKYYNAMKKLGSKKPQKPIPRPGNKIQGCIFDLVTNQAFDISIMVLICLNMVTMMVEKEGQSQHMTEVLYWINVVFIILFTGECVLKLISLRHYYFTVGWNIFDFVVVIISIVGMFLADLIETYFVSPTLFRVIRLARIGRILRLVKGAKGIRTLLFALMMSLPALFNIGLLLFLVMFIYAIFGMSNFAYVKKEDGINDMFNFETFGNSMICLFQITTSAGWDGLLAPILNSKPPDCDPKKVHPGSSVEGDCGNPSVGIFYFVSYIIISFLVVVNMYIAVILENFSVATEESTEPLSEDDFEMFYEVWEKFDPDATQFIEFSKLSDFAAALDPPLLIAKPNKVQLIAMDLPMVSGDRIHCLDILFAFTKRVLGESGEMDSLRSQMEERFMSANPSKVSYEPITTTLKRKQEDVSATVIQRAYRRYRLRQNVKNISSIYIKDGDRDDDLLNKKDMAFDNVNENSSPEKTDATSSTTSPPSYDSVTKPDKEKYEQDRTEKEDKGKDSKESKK
T5 sequence (Q07699 19-218, further chain): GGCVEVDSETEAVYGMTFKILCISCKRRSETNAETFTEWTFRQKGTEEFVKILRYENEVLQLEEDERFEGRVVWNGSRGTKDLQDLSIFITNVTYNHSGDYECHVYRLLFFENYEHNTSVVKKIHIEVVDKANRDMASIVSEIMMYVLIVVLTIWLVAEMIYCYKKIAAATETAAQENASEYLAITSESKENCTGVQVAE
The data set can be described thus: cell-based. As to conditions: whole-cell patch clamp, HEK293T, hNav1.7 with β1 and β2; held at -90 mV, step to 0 mV; mean ± S.E.M., n = 3-7; SEM; read-out: IC50 for hNav1.7.

Data set [1] relates to other Kv channels (hKv1.1-1.5, rKv2.1, hKv3.1-3.4, mKv4.1, hKv7.2 and hERG). To be noted: 1 µM toxin; n = 3-4.
The next data set has as its target T6, mKv4.1 (Mus musculus, UniProt Q03719).
T6 construct: expressed in transfected cells; host or cells: HEK293T
In words: Whole-cell patch clamp of mKv4.1 currents. It counts as cell-based. To be noted: mean ± S.E.M., n = 5, SEM.

A further data set concerns the target T7, rKv2.1 (Rattus norvegicus, UniProt P15387).
T7 construct: expressed in transfected cells; host or cells: HEK293T
The data set can be described thus: Whole-cell patch clamp of rKv2.1 currents. As to conditions: mean ± S.E.M., n = 6, SEM. It is filed as cell-based.

The target of a further data set is hERG (Homo sapiens, UniProt Q12809). In words: in vitro. To be noted: pH 7.4, SEM.

T6 sequence (Q03719 whole entry): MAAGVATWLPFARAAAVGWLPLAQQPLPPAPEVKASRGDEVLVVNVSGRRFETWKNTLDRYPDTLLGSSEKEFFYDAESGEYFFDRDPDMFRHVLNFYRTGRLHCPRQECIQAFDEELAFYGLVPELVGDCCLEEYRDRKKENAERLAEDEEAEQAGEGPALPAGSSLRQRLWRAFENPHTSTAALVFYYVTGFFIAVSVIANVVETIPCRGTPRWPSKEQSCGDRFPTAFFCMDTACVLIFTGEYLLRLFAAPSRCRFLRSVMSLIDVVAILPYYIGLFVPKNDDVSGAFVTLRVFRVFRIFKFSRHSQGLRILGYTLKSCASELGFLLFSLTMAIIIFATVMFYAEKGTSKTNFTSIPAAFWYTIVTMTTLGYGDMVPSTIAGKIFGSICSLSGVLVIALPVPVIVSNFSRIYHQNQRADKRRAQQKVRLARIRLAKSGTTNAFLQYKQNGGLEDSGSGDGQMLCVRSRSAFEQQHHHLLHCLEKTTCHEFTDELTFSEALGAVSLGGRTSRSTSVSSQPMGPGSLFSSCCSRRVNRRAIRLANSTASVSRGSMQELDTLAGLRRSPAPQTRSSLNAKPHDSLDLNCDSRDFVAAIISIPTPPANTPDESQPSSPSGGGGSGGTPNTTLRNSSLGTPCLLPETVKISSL
T2 sequence (Q63881 whole entry D281N): as the sequence (Q63881 whole entry D284A) above, with D281N, A284D counted along it
T7 sequence (P15387 whole entry): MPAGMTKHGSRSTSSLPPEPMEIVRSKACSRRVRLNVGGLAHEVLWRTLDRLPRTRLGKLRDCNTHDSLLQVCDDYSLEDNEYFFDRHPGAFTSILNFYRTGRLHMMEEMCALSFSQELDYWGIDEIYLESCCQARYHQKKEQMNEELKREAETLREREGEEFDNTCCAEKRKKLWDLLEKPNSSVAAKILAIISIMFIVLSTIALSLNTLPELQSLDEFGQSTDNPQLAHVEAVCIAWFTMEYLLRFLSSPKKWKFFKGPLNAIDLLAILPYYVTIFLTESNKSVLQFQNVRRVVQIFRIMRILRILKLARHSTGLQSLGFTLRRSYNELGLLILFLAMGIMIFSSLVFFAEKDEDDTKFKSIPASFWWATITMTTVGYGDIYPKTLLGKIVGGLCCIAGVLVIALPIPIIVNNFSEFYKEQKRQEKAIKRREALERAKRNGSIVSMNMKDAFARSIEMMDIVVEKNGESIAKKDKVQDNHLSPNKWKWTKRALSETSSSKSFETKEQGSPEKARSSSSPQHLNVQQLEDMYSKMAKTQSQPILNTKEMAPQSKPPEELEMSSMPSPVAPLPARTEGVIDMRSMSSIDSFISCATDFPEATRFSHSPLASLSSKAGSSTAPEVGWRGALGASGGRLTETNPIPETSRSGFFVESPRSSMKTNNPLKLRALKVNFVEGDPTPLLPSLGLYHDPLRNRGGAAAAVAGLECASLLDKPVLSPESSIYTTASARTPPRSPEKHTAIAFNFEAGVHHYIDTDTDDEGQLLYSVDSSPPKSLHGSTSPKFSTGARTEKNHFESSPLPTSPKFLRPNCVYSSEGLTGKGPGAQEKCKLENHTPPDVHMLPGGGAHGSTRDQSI
T1 sequence (Q63881 whole entry E283A): as the sequence (Q63881 whole entry D284A) above, with E283A, A284D counted along it

What is called IC50 is the concentration that gives 50% inhibition. On to `CC(C)C[C@H](NC(=O)[C@H](Cc1ccc(O)cc1)NC(=O)[C@@H](NC(=O)[C@H](CCCCN)NC(=O)[C@@H]1CSSC[C@@H]2NC(=O)[C@H](CCC(=O)O)NC(=O)[C@H](CC(N)=O)NC(=O)[C@H](CCCCN)NC(=O)CNC(=O)[C@@H]3CCCN3C(=O)[C@H]([C@@H](C)O)NC(=O)[C@@H]3CSSC[C@H](NC(=O)[C@H](C)NC(=O)[C@H](Cc4ccc(O)cc4)NC(=O)[C@H](CC(N)=O)NC(=O)[C@@H]4CCCN4C(=O)[C@H](CSSC[C@H](NC(=O)CN)C(=O)N[C@@H](CCCCN)C(=O)NCC(=O)N[C@@H](Cc4ccccc4)C(=O)NCC(=O)N[C@@H](CC(=O)O)C(=O)N[C@@H](CO)C(=O)N3)NC2=O)C(=O)N[C@@H](CO)C(=O)N[C@@H](CO)C(=O)N[C@@H](CCCCN)C(=O)N[C@@H](Cc2c[nH]cn2)C(=O)N[C@@H](CCCCN)C(=O)N[C@@H](Cc2c[nH]c3ccccc23)C(=O)N1)C(C)C)C(N)=O` [HNTX-III] (H-GCKGFGDSCTPGKNECCPNYACSSKHKWCKVYL-NH2; disulfide 2-17, 9-22, 16-29), for which the IC50 against rKv4.2 E283A was 987 ± 303 nM; against rKv4.2 D281N it was 131 ± 32 nM; against rKv4.2 E283K, 3000 ± 1000 nM; on rKv4.2 D284A, 491 ± 72 nM; at hNav1.7, 207 ± 57.2 nM. Also, in [1], the “effect on the current traces of other Kv channels” value is reported as “no obvious or only minimal effect”.
On to `CSCC[C@@H]1NC(=O)CNC(=O)[C@H](CCC(=O)O)NC(=O)[C@@H]2CSSC[C@H](NC(=O)[C@@H](N)Cc3ccc(O)cc3)C(=O)N[C@@H](CCC(N)=O)C(=O)N[C@@H](CCCCN)C(=O)N[C@@H](Cc3c[nH]c4ccccc34)C(=O)N[C@@H](CCSC)C(=O)N[C@@H](Cc3c[nH]c4ccccc34)C(=O)N[C@@H]([C@@H](C)O)C(=O)N[C@H]3CSSC[C@H](NC(=O)[C@H](C(C)C)NC1=O)C(=O)N[C@@H](CCCNC(=N)N)C(=O)N[C@@H](CC(C)C)C(=O)N[C@@H](Cc1c[nH]c4ccccc14)C(=O)N[C@H](C(=O)N[C@@H](CCCCN)C(=O)N[C@@H](CCCCN)C(=O)N[C@@H](CCCCN)C(=O)N[C@@H](CC(C)C)C(=O)N[C@@H](Cc1c[nH]c4ccccc14)C(=O)O)CSSC[C@H](NC(=O)[C@H](CCCCN)NC(=O)[C@H](CCCNC(=N)N)NC(=O)[C@H](CCC(=O)O)NC(=O)[C@H](CO)NC(=O)[C@H](CC(=O)O)NC3=O)C(=O)N2` [ProTx-II], for which the IC50 against rKv4.2 E283K was found to be 14 ± 6 nM; against mKv4.1 it was 38.1 ± 5.3 nM; against rKv2.1 it was 78.7 ± 9 nM; at hERG, 29.7 ± 2.8 nM.
